Columns and labels:
Assay in all cases: KINOMEscan kinase binding assay (Eurofins/DiscoveRx), % Ctrl
Conditions in all cases: 1 μM
[1] = target: T1, kinases (Homo sapiens, UniProt P10721, V559D/V654A)
T1 construct: purchased Eurofins/DiscoveRx; host or cells: E. coli BL21-derived host (T7 phage display) for most kinases; HEK-293 for the rest
In short: (§1)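 Read-out is qPCR of kinase eluted from ligand-coated streptavidin beads after 1 h room-temperature competition with test compound. Values are % Ctrl at the tested concentration, lower meaning tighter binding.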

[2] = target: T2, kinases (Homo sapiens, UniProt P00533, L858R/T790M)
T2 construct: purchased Eurofins/DiscoveRx; host or cells: E. coli BL21-derived host (T7 phage display) for most kinases; HEK-293 for the rest
In short: as §1

[3] = target: T3, kinases (Homo sapiens, UniProt P36888, N841I)
T3 construct: purchased Eurofins/DiscoveRx; host or cells: E. coli BL21-derived host (T7 phage display) for most kinases; HEK-293 for the rest
T3 sequence (P36888 27-993 N841I): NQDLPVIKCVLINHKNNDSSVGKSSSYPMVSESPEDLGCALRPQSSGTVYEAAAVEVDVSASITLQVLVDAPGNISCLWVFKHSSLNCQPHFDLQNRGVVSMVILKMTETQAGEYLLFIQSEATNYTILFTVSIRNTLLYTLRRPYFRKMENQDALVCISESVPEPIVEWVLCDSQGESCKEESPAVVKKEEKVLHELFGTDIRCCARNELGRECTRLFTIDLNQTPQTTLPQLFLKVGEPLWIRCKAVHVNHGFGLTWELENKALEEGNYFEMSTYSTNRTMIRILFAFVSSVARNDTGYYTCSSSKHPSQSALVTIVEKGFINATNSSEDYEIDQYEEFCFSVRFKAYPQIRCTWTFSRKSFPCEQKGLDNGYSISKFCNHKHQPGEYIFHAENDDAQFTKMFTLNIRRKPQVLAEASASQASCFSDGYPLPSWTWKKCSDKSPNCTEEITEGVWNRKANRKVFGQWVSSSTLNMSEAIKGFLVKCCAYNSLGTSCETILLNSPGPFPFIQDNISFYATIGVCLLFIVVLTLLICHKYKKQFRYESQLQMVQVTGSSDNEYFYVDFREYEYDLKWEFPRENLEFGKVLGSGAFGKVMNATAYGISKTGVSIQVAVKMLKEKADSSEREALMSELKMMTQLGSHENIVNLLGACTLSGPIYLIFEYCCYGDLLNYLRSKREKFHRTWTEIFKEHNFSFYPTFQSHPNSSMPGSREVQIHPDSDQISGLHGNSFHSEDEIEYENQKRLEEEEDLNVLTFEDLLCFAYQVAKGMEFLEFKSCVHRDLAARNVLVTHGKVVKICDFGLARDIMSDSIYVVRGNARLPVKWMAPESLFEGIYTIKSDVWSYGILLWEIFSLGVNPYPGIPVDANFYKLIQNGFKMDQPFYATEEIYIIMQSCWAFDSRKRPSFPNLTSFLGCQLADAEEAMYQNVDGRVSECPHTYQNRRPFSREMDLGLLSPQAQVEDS
In short: as §1

[4] = target: T4, kinases (Homo sapiens, UniProt P10721, T670I/V559D)
T4 construct: purchased Eurofins/DiscoveRx; host or cells: E. coli BL21-derived host (T7 phage display) for most kinases; HEK-293 for the rest
In short: as §1

[5] = target: T5, kinases (Homo sapiens, UniProt P07949, M918T)
T5 construct: purchased Eurofins/DiscoveRx; host or cells: E. coli BL21-derived host (T7 phage display) for most kinases; HEK-293 for the rest
In short: as §1

T4 sequence (P10721 26-976 V559D/T670I): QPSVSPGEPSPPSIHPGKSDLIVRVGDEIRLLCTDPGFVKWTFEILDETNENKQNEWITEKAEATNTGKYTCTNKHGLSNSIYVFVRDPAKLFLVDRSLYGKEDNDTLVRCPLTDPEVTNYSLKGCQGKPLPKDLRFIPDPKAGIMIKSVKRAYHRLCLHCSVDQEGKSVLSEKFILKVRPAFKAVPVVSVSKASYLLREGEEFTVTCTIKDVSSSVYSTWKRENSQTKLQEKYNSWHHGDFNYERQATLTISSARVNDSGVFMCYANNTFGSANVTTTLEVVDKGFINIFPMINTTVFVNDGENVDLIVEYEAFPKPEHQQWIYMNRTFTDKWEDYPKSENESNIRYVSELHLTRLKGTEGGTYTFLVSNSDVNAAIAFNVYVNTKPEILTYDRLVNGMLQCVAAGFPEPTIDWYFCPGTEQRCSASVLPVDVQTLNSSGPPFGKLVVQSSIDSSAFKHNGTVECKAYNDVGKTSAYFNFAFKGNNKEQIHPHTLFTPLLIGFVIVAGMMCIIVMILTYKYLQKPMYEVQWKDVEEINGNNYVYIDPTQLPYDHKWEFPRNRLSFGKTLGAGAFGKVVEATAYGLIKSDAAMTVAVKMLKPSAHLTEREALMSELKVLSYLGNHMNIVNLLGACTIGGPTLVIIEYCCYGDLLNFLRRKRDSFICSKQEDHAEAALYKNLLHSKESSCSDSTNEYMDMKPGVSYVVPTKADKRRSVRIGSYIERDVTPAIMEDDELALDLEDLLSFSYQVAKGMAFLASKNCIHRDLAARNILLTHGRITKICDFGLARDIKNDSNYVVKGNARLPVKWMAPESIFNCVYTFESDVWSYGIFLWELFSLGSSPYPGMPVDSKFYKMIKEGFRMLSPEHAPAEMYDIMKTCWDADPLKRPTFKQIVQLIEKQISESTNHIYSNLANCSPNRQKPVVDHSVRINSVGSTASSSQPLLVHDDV
T1 sequence (P10721 26-976 V559D/V654A): as the sequence (P10721 26-976 V559D/T670I) above, with V629A, I645T counted along it
T5 sequence (P07949 29-1114 M918T): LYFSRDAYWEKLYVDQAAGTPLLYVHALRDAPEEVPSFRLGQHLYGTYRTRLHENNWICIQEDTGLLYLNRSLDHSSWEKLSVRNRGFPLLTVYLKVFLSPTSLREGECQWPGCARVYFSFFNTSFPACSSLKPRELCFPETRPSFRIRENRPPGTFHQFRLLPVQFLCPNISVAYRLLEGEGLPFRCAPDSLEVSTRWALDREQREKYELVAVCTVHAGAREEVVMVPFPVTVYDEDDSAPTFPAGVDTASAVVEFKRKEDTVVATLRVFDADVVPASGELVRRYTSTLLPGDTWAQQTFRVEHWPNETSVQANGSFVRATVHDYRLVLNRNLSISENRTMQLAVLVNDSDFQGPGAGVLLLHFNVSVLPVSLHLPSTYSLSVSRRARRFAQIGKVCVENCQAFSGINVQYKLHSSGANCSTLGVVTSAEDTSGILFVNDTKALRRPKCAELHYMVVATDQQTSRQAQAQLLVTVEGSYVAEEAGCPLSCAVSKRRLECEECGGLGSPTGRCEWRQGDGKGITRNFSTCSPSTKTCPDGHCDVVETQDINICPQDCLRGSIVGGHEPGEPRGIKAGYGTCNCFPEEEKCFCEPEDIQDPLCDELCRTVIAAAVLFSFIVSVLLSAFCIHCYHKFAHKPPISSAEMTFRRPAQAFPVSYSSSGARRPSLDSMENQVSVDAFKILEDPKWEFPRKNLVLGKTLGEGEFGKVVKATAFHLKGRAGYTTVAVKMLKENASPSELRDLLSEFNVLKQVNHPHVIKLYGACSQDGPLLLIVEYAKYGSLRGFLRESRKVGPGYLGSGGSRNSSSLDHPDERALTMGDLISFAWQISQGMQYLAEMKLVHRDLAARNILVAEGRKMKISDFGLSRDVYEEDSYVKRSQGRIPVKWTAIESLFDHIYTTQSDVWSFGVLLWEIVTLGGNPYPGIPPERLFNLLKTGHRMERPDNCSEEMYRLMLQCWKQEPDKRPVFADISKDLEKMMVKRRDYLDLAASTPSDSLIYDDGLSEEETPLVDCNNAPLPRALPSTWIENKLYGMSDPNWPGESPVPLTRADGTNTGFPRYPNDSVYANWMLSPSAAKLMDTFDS

Row | SMILES | % Ctrl, KIT(V559D, V654A) ([1]; KIT(V559D, V654A)) | % Ctrl, EGFR(L858R, T790M) ([2]; EGFR(L858R, T790M)) | % Ctrl, FLT3(N841I) ([3]; FLT3(N841I)) | % Ctrl, KIT(V559D, T670I) ([4]; KIT(V559D, T670I)) | % Ctrl, RET(M918T) ([5]; RET(M918T)) | % Ctrl, KIT(V559D, V654A) ([1]; target KIT(V559D, V654A)) | % Ctrl, EGFR(L858R, T790M) ([2]; target EGFR(L858R, T790M)) | % Ctrl, FLT3(N841I) ([3]; target FLT3(N841I)) | % Ctrl, KIT(V559D, T670I) ([4]; target KIT(V559D, T670I)) | % Ctrl, RET(M918T) ([5]; target RET(M918T))
1 | Cc1cc2c([nH]1)/C=C1\C(=O)Nc3ccc(cc31)-c1cnn(C)c1CNCCN(C)C2=O [Ex. 125, [3a(4)Z]-6,9,14-trimethyl-9,10,11,12,13,14-hexahydro-1,17-(ethanediylidene)pyrazolo[4,3-m]dipyrrolo[3,2-f:3′,4′-i][1,4]diazacyclopentadecine-3,8(2H,5H)-dione] | 6.7 % Ctrl | 1.2 % Ctrl | 0 % Ctrl | 27 % Ctrl | 0 % Ctrl | – | – | – | – | –
2 | Cc1cc2c([nH]1)/C=C1\C(=O)Nc3cnc(cc31)-c1cn[nH]c1CNCCN(C)C2=O [Ex. 55, [3a(4)Z]-6,9-dimethyl-9,10,11,12,13,14-hexahydro-17,1-(azenometheno)pyrazolo[4,3-m]dipyrrolo[3,2-f:3′,4′-i][1,4]diazacyclopentadecine-3,8(2,5H)-dione] | – | – | – | – | – | 22 % Ctrl | 35 % Ctrl | 0 % Ctrl | 50 % Ctrl | 0.6 % Ctrl
3 | Cc1cc2c([nH]1)/C=C1\C(=O)Nc3ccc(cc31)-c1c(noc1C)CNCCN(C)C2=O [Ex. 139, [3a(4)Z]-6,9,16-trimethyl-10,11,12,13-tetrahydro-2H-1,17-(ethanediylidene)[1,2]oxazolo[4,3-m]dipyrrolo[3,2-f:3′,4′-i][1,4]diazacyclopentadecine-3,8(5H,9H)-dione] | – | – | – | – | – | 75 % Ctrl | 17 % Ctrl | 12 % Ctrl | 69 % Ctrl | 41 % Ctrl
4 | Cc1cc2c([nH]1)/C=C1\C(=O)Nc3ccc(cc31)-c1ccnn1CCNCCNC2=O [Ex. 43, [19a(20)Z]-2-methyl-5,6,7,8,9,10-hexahydro-15,17-(ethanediylidene)pyrazolo[1,5-g]dipyrrolo[3,4-k:2′,3′-n][1,4,7]triazacyclohexadecine-4,19(1H,18H)-dione] | 100 % Ctrl | 98 % Ctrl | 98 % Ctrl | 92 % Ctrl | 95 % Ctrl | – | – | – | – | –
5 | Cc1cc2c([nH]1)/C=C1\C(=O)Nc3ccc(cc31)-c1cnn(C)c1COCCN(C)C2=O [Ex. 124, [3a(4)Z]-6,9,14-trimethyl-10,11,13,14-tetrahydro-2H-1,17-(ethanediylidene)pyrazolo[4,3-m]dipyrrolo[3,2-f:3′,4′-i][1,4]oxazacyclopentadecine-3,8(5H,9H)-dione] | 7.7 % Ctrl | 1.7 % Ctrl | 0 % Ctrl | 24 % Ctrl | 0 % Ctrl | – | – | – | – | –
6 | CN1CCOCCOc2cc3c(cc2Cl)NC(=O)/C3=C\c2[nH]ccc2C1=O [Ex. 143, [16a(17)Z]-19-chloro-2,5-dimethyl-6,7,9,10-tetrahydro-1H-12,14-(ethanediylidene)dipyrrolo[3,2-i:3′,4′-l][1,4,7]oxathiazacyclopentadecine-4,16(5H,15H)-dione] | – | – | – | – | – | 33 % Ctrl | 75 % Ctrl | 5.5 % Ctrl | 1.6 % Ctrl | 0.7 % Ctrl
